The nature of series [1]: Photophysical property of the compound assessed as fluorescence quantum yield by UV-Visible spectrophotometric analysis. The class given is physicochemical.
Series [2] in a line: Chemical stability of compound in PBS buffer at pH 7.4 assessed as parent compound remaining measured after 60 mins by UHPLC analysis. The format is physicochemical. The following applies: read-out: Stability.
The test system of series [3] is HeLa. Kind of series: Cytotoxicity against human HeLa cells assessed as TBHP release by measuring fluorescence intensity at 50 uM incubated for 5 mins in presence of light irradiation at 375 nm by confocal fluorescence microscopic analysis. The format is functional, cell-based.
Series [4] has as its system HeLa. Put plainly: Cytotoxicity against human HeLa cells assessed as reduction in cell survival upto 50 uM by CCK-8 assay. The format is functional. The following applies: up to 50 µM. (Tetrazolium dyes change colour on reduction, which living cells bring about.)
In series [5] the test system is HeLa. Put plainly: Cytotoxicity against human HeLa cells assessed as reduction in cell survival upto 50 uM in presence of light irradiation by CCK-8 assay. Particulars: up to 50 µM. The format is functional.
Series [6] deals with HeLa. Put plainly: Cytotoxicity against human HeLa cells at 25 uM by CCK-8 assay. The format is functional, cell-based.
The test system of series [7] is HeLa. Put plainly: Cytotoxicity against human HeLa cells assessed as TBHP release by measuring fluorescence intensity at 10 uM incubated for 5 mins in presence of light irradiation at 375 to 455 nm by confocal fluorescence microscopic analysis. The class given is functional, cell-based.

Molecules are shown by their SMILES. Active and inactive are the calls of the source. No cut-off for these calls is given here.

On to `CC(=O)OC(=O)OCc1cc(=O)oc2cc(O)c(Br)cc12`, for which the Activity in series [1] was 0.04.
As for `CC(C)(C)OOC(=O)OCc1cc(=O)oc2c3c(c(Br)cc12)NCC3`, in series [1], the Activity is listed as 0.14. In addition, the remaining at 1 h in series [2] worked out at 68%.
On to `CC(C)(C)OOC(=O)OCc1cc(=O)oc2cc(O)c(Br)cc12`, for which the Activity in series [1] came out at 0.13. The remaining at 1 h in series [2] is 45%. In the series on HeLa [3], the result was Active.
As to `CC(C)(C)OOC(=O)OCc1cc(=O)oc2c3c(c(Br)cc12)NCCC3`, the Activity in series [1] worked out at 0.082; with HeLa [4] it was 63%; in the series on HeLa [5], 46%. Besides, the remaining at 1 h in series [2] is 50%. In addition, the result in the series with HeLa [6] and in the series on HeLa [7] was Active.

Values taken from ChEMBL document CHEMBL6078620, “Design and synthesis of visible light-activatable photocaged peroxides for optical control of ROS-mediated cellular signaling” (Bioorg Med Chem, 2024).
